Experimental data as given in patent publication US10807982B2, “Bromodomain inhibitors” (CELGENE QUANTICEL RESEARCH, INC., priority 2015, dated 2020).

Experiments:
BRD4(BD1) = BRD4(BD1) (Homo sapiens (Human), UniProt O60885); experiment: In vitro enzyme inhibition assay (BRD4 AlphaScreen, H4-tetraacetyl peptide); assay type: binding; details: BRD4(BD1) 2 nM, peptide 15 nM
Protocol: Determination of the IC50 for the heterocyclic derivative BRD4 inhibitors disclosed herein was performed as follows. His-tagged […] was cloned, expressed and purified to homogeneity. Filipakopoulos et al., 468 Nature 1067 (2010). BRD4 binding and inhibition was assessed by monitoring the interaction of biotinylated H4-tetraacetyl peptide (AnaSpec, H4K5/8/12/16(Ac), biotin—labeled) with the target using the AlphaScreen technology (Life Technologies). In a 384-well ProxiPlate BRD4(BD1) (2 nM final) was combined with peptide (15 nM final) in 50 mM HEPES (pH 7.3), 10 mM NaCl, 0.25 mM TCEP, 0.1% (w/v) BSA, and 0.005% (w/v) Brij-35 either in the presence of DMSO (final 0.4% DMSO) or compound dilution series in DMSO. After 20 min incubation at RT, Alpha streptavidin donor beads and Nickel Chelate acceptor beads were added to a final concentration of 5 μg/mL. After 2 hr of equilibration, plates were read on an Envision instrument and the IC50 was calculated using a four parameter non-linear curve fit.
The ability of the compounds disclosed herein to inhibit BRD4 activity was quantified and the respective IC50 value was determined.

[1] = tested on: NCI-H460, human non-small cell lung cancer cells; experiment: Cell-MTS cellular proliferation assay, NCI-H460; assay type: cell-based; details: 168 hr incubation
Protocol: (§1) A colorimetric cellular proliferation assay (Cell-MTS assay) was performed to assess the ability of the heterocyclic derivative […] inhibitors disclosed herein to effect the proliferation of established cancer cell lines.
(§2) The Cell-MTS assay is a 7-day plate-based colorimetric assay which quantifies the amount of newly generated NADH in the presence or absence of test compound. The NADH level is used for the quantification of cancer cell proliferation.
(§3) Established cancer cell lines with a variety of driving mutations were obtained from American Type Culture Collection (ATCC) and routinely passaged according to ATCC protocols. For routine assay, these cells were seeded at densities which enabled ˜90% confluence after 7 days of culture. Raji, human Burkitts lymphoma cells, (cMYC) were seeded at 15,000 cells per 96-well. HL-60, human proleukemia cells, (NRAS, p16, p53, c-Myc amplified) were seeded at 5,000 cells per 96-well. NCI-H460, human non-small cell lung cancer cells. (KRAS, PIK3CA, STLK11, p16) were seeded at 3,000 cells per 96-well. 24 hr after plating, cells received an 11 point dilution of test compound with final concentration ranges from 100 µM to 2.0 nM. Cells were incubated in the presence of compound for 168 hr at 37° C., and 5% CO2. At the end of this incubation period, 80 µL of media is removed and 20 µL of CellTiter 96® AQueous Non-Radioactive Cell Proliferation Assay solution (Promega) was added. The cells were incubated until the OD490 was >0.6. IC50 values were calculated using the IDBS XLfit software package and include background subtracted OD490 values and normalization to DMSO controls. Cellular proliferation IC50 values were uploaded and archived using the Chem Biography Platform. Table 3 provides the results of the in vitro enzyme inhibition assay experiments and the in vitro cell-based assay experiments performed with the compounds disclosed herein: […]

[2] = tested on: HL-60, human proleukemia cells; experiment: Cell-MTS cellular proliferation assay, HL-60; assay type: cell-based; details: HL-60 cells, 168 hr incubation
Protocol: as §1, §2, §3

[3] = tested on: Raji, human Burkitts lymphoma cells; experiment: Cell-MTS cellular proliferation assay, Raji; assay type: cell-based; details: 168 hr incubation
Protocol: as §1, §2, §3

Compound | IC50 (BRD4(BD1)) | also measured
CCS(=O)(=O)Nc1cc(-c2cc(C)c(=O)n(C)c2)c2oc(C3CC3)cc2c1 | ≤ 500 nM | IC50 ([1]; Homo sapiens): 500 to 5000 nM; IC50 ([2]; Homo sapiens): ≤ 500 nM; IC50 ([3]; Homo sapiens): ≤ 500 nM
CCc1cc2cc(S(C)(=O)=O)cc(-c3cn(C)c(=O)c4ccccc34)c2o1 [4-(2-ethyl-5-(methylsulfonyl)benzofuran-7-yl)-2-methylisoquinolin-1(2H)-one, reference compound] | ≤ 500 nM | IC50 ([1]; Homo sapiens): 500 to 5000 nM; IC50 ([2]; Homo sapiens): ≤ 500 nM; IC50 ([3]; Homo sapiens): ≤ 500 nM
CN1Cc2ccc(-c3cn(C)c(=O)c4ccccc34)cc2S1(=O)=O [Example 1, 2-methyl-4-(2-methyl-1,1-dioxo-3H-1,2-benzthiazol-6-yl)isoquinolin-1-one] | 500 to 5000 nM | IC50 ([1]; Homo sapiens): 500 to 5000 nM; IC50 ([2]; Homo sapiens): 500 to 5000 nM; IC50 ([3]; Homo sapiens): 500 to 5000 nM
Cn1cc(-c2ccc3c(c2)S(=O)(=O)NC3)c2ccccc2c1=O [Example 2, 4-(1,1-dioxo-2,3-dihydro-1,2-benzothiazol-6-yl)-2-methylisoquinolin-1-one] | 500 to 5000 nM | IC50 ([1]; Homo sapiens): > 5000 nM; IC50 ([2]; Homo sapiens): 500 to 5000 nM; IC50 ([3]; Homo sapiens): > 5000 nM
COc1cc2c(cc1-c1cc(C)c(=O)n(C)c1)S(=O)(=O)N(C)C2 [Example 3, 5-(5-methoxy-2-methyl-1,1-dioxo-3H-1,2-benzothiazol-6-yl)-1,3-dimethylpyridin-2-one] | ≤ 500 nM | IC50 ([1]; Homo sapiens): > 5000 nM; IC50 ([2]; Homo sapiens): 500 to 5000 nM; IC50 ([3]; Homo sapiens): > 5000 nM
COc1cc2c(cc1-c1cn(C)c(=O)c3ccccc13)S(=O)(=O)N(C)C2 [Example 4, 4-(5-methoxy-2-methyl-1,1-dioxo-3H-1,2-benzothiazol-6-yl)-2-methylisoquinolin-1-one] | ≤ 500 nM | IC50 ([1]; Homo sapiens): 500 to 5000 nM; IC50 ([2]; Homo sapiens): ≤ 500 nM; IC50 ([3]; Homo sapiens): 500 to 5000 nM
CN1Cc2cc(Oc3ccc(F)cc3F)c(-c3ccc(=O)n(C)c3)cc2S1(=O)=O [Example 12, 5-[5-(2,4-difluorophenoxy)-2-methyl-1,1-dioxo-3H-1,2-benzothiazol-6-yl]-1-methylpyridin-2-one] | ≤ 500 nM | 
CCc1cc2cc(S(C)(=O)=O)cc(-c3cc(C)c(=O)n(C)c3)c2o1 [Example 21, 5-(2-ethyl-5-methylsulfonyl-1-benzofuran-7-yl)-1,3-dimethylpyridin-2-one] | ≤ 500 nM | 
Cc1cc(-c2nc(NS(C)(=O)=O)c3nc(C)n(Cc4ccc(F)cc4)c3n2)cn(C)c1=O [Example 22, N-[2-(1,5-dimethyl-6-oxopyridin-3-yl)-9-[(4-fluorophenyl)methyl]-8-methylpurin-6-yl]methanesulfonamide] | ≤ 500 nM | 
Cc1cc(-c2cc(S(C)(=O)=O)cc3cc(-c4ccccc4)oc23)cn(C)c1=O [Example 25, 1,3-dimethyl-5-(5-methylsulfonyl-2-phenyl-1-benzofuran-7-yl)pyridin-2-one] | ≤ 500 nM | 
Cc1cc(-c2cc(NS(C)(=O)=O)c3nc(C)n([C@H](C)c4ccccc4)c3c2)cn(C)c1=O [Example 45, N-[6-(1,5-dimethyl-6-oxopyridin-3-yl)-2-methyl-1-[(1R)-(1-phenylethyl)]benzimidazol-4-yl]methanesulfonamide] |  | IC50 [1]: 500 to 5000 nM; IC50 [2]: ≤ 500 nM; IC50 [3]: ≤ 500 nM
CCS(=O)(=O)Nc1cc(-c2cc(C)c(=O)n(C)c2)c2nc(C3CC3)n(C)c2c1 [Example 54, N-[2-cyclopropyl-7-(1,5-dimethyl-6-oxopyridin-3-yl)-3-methylbenzimidazol-5-yl]ethanesulfonamide] | ≤ 500 nM | 
CCS(=O)(=O)Nc1cc(-c2cn(C)c(=O)c3ccccc23)c2nc(C3CC3)n(C)c2c1 [Example 55, N-[2-cyclopropyl-3-methyl-7-(2-methyl-1-oxoisoquinolin-4-yl)benzimidazol-5-yl]ethanesulfonamide] | ≤ 500 nM | 
COc1cc(-c2cc(CS(C)(=O)=O)cc3nc(C4CC4)oc23)cn(C)c1=O [Example 63, 5-[2-cyclopropyl-5-(methylsulfonylmethyl)-1,3-benzoxazol-7-yl]-3-methoxy-1-methylpyridin-2-one] | ≤ 500 nM | 
CCS(=O)(=O)c1cc(-c2cc(C)c(=O)n(C)c2)cc2c1nc(C)n2CC1CC1 [Example 69, 5-[3-(cyclopropylmethyl)-7-ethylsulfonyl-2-methylbenzimidazol-5-yl]-1,3-dimethylpyridin-2-one] | ≤ 500 nM | 

Now from value to compound, other results behind:

IC50 (BRD4(BD1)) | Compound | also measured
≤ 500 nM | Cc1cc(-c2cc(S(C)(=O)=O)ccc2OCC2CC2)c2n(c1=O)CCC2F (racemic) [Example 90, (±)-8-[2-(cyclopropylmethoxy)-5-methylsulfonylphenyl]-1-fluoro-6-methyl-2,3-dihydro-1H-indolizin-5-one] | 
≤ 500 nM | CCS(=O)(=O)c1cc(-c2cc(OC)c(=O)n(C)c2)cc2c1nc(C)n2CC1CC1 [Example 70, 5-[3-(cyclopropylmethyl)-7-ethylsulfonyl-2-methylbenzimidazol-5-yl]-3-methoxy-1-methylpyridin-2-one] | 
≤ 500 nM | CCc1nc2c(NS(C)(=O)=O)cc(-c3cc(C)c(=O)n(C)c3)cc2n1CC1CC1 [Example 74, N-[1-(cyclopropylmethyl)-6-(1,5-dimethyl-6-oxopyridin-3-yl)-2-ethylbenzimidazol-4-yl]methanesulfonamide] | 
≤ 500 nM | CCn1c(-c2cc(C)c(=O)n(C)c2)cc2c(S(C)(=O)=O)cccc21 [Example 75, 5-(1-ethyl-4-methylsulfonylindol-2-yl)-1,3-dimethylpyridin-2-one] | 
≤ 500 nM | Cc1cc(-c2cc3c(S(C)(=O)=O)cccc3n2CC2CC2)cn(C)c1=O [Example 76, 5-[1-(cyclopropylmethyl)-4-methylsulfonylindol-2-yl]-1,3-dimethylpyridin-2-one] | 
≤ 500 nM | Cc1cc(-c2cc3c(S(C)(=O)=O)cccc3n2CCC2CC2)cn(C)c1=O [Example 77, 5-[1-(2-cyclopropylethyl)-4-methylsulfonylindol-2-yl]-1,3-dimethylpyridin-2-one] | 
≤ 500 nM | Cn1cc(-c2cc3c(S(C)(=O)=O)cccc3n2CC2CC2)c2ccccc2c1=O [Example 78, 4-[1-(cyclopropylmethyl)-4-methylsulfonylindol-2-yl]-2-methylisoquinolin-1-one] | 
≤ 500 nM | Cc1cc(-c2nc(NS(C)(=O)=O)c3nc(C)n(CC4CC4)c3n2)cn(C)c1=O [Example 81, N-[9-(cyclopropylmethyl)-2-(1,5-dimethyl-6-oxopyridin-3-yl)-8-methylpurin-6-yl]methanesulfonamide] | 
500 to 5000 nM | Cc1cc(-c2cc(S(C)(=O)=O)ccc2OCC2CC2)c2n(c1=O)CCC2(F)F [Example 89, 8-[2-(cyclopropylmethoxy)-5-methylsulfonylphenyl]-1,1-difluoro-6-methyl-2,3-dihydroindolizin-5-one] | 
≤ 500 nM | CCS(=O)(=O)Nc1cc(-c2cc(C)c(=O)n(C)c2)cc2c1nc(OC)n2CC1CC1 [Example 103, N-[1-(cyclopropylmethyl)-6-(1,5-dimethyl-6-oxopyridin-3-yl)-2-methoxybenzimidazol-4-yl]ethanesulfonamide] | 
≤ 500 nM | Cc1cc(-c2cc(NS(C)(=O)=O)c3c(F)nn(Cc4ccccc4)c3c2)cn(C)c1=O [Example 104, N-[1-benzyl-6-(1,5-dimethyl-6-oxopyridin-3-yl)-3-fluoroindazol-4-yl]methanesulfonamide] | 
≤ 500 nM | CCS(=O)(=O)Nc1cc(-c2cc(C)c(=O)n(C)c2)cc2c1c(F)nn2Cc1ccc(F)cc1 [Example 105, N-[6-(1,5-dimethyl-6-oxopyridin-3-yl)-3-fluoro-1-[(4-fluorophenyl)methyl]indazol-4-yl]ethanesulfonamide] | 
≤ 500 nM | CCS(=O)(=O)Nc1cc(-c2cc(C)c(=O)n(C)c2)cc2c1c(F)nn2Cc1ccccc1 [Example 106, N-[1-benzyl-6-(1,5-dimethyl-6-oxopyridin-3-yl)-3-fluoroindazol-4-yl]ethanesulfonamide] | 
